# Reference: US9878994B2, “2-H-indazole derivatives as cyclin-dependent kinase (CDK) inhibitors and therapeutic uses thereof” (Beta Pharma, Inc., priority 2014, dated 2018)
# pIC50: −log10 of the molar value. Like-named read-outs stand apart in the source and are kept apart here.
# Columns and labels:
# CDK6 = CDK6 (Homo sapiens, UniProt Q00534); experiment: CDK6 biochemical assay (33P-ATP filter-binding kinase assay)
# Experimental: (§1) Cyclin Dl was added to freshly prepared reaction buffer [20 mM Hepes (pH 7.5), 10 mM MgCl2, 1 mM EGTA, 0.02% Brij 35, 0.02 mg/mL BSA, 0.1 mM Na3VO4, 2 mM DTT, 1% DMSO]. CDK4 or CDK6 was delivered to the substrate solution and gently mixed. […] The compounds, diluted in DMSO, were added into the kinase reaction mixture by Acoustic technology (Echo550; nanoliter range) and incubated for 20 minutes at room temperature. 33P-ATP (1 μM) was added to the reaction mixture to initiate the reaction. The kinase reaction was incubated for 2 hours at room temperature. The reactions were spotted onto P81 ion exchange paper and the kinase activity detected by filter-binding method. Curves were fitted to a nonlinear regression curve using a four parameter logistic equation (GraphPad Prism).
# MCF7 human tumor cells = experiment: MCF7 cell assay (Cell Titer-Glo, inhibition of cell growth); format: cell-based; details: 72 hours of culture
# Experimental: The MCF7 human tumor cells were seeded in a clear polystyrene 96-well microculture plate (Corning® Costar® 96-well flat bottom plate, Cat. #3997) in a total volume of 90 μL/well. After 24 hours of incubation in a humidified incubator at 37° C. with 5% CO2 and 95% air, 10 μL of 10×, serially diluted 1 in growth medium was added to each well in duplicate (10 point dose response). After 72 hours of culture in a humidified incubator at 37° C., in an atmosphere of 5% CO2 and 95% air, the plated cells and Cell Titer-Glo® (Promega G7571) reagents were brought to room temperature to equilibrate for 30 minutes. 100 μL of Cell Titer-Glo® reagent was added to each well. The plate was shaken for two minutes and then left to equilibrate for ten minutes. The medium/Cell Titer Glo® reagent was transferred to a white polystyrene 96-well microculture plate (Corning® Costar® 96-well flat bottom plate, Cat. #3917) before reading luminescence on the Tecan GENios microplate reader. Percent inhibition of cell growth was calculated relative to untreated control wells. All tests were performed in duplicate at each concentration level. The IC50 value for the test agents was estimated using Prism 6.05 by curve-fitting the data using the following four parameter-logistic equation: […]
# CDK4 = CDK4 (Homo sapiens, UniProt P11802); experiment: CDK4 biochemical assay (33P-ATP filter-binding kinase assay)
# Sequence of CDK4 (P11802 whole entry): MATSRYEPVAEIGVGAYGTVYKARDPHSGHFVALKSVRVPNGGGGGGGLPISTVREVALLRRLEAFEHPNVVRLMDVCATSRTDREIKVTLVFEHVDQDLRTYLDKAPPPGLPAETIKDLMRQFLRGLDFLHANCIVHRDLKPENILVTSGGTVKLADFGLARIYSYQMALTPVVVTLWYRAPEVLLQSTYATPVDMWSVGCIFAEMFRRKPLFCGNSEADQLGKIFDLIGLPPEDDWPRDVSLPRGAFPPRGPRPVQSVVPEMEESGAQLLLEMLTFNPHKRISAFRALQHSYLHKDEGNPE
# Sequence of CDK4 (P24385 whole entry partner): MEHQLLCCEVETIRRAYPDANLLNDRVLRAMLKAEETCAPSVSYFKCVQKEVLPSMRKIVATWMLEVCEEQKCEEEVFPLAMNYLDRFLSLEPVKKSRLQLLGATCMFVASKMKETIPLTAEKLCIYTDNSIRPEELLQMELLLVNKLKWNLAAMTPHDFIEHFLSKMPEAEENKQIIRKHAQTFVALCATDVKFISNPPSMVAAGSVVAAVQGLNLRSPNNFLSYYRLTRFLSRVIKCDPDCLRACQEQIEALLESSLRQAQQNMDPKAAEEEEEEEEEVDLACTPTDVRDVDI
# Experimental: as §1
# Sequence of CDK6 (Q00534 whole entry): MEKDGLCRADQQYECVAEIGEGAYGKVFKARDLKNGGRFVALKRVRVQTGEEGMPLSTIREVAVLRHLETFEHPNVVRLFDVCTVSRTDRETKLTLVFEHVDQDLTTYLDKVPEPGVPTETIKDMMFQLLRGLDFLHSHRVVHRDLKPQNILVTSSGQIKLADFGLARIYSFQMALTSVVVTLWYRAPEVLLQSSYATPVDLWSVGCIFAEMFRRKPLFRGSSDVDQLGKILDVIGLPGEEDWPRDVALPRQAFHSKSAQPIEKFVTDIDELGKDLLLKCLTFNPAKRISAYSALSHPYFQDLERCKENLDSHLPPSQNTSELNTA
# Sequence of CDK6 (P24385 whole entry partner): as the sequence (P24385 whole entry partner) above
"pIC50 (CDK6; Cyclin D1, 1 μM 33P-ATP, 2 hours at room temperature, read-out: IC50 in CDK6 assay)",pIC50 (MCF7 human tumor cells),"pIC50 (CDK4; Cyclin D1, 1 μM 33P-ATP, 2 hours at room temperature, read-out: IC50 in CDK4 assay)","pIC50 (CDK6; assay conditions described herein, read-out: IC50 CDK6 biochemical assay)","pIC50 (CDK4; assay conditions described herein, read-out: IC50 CDK4 biochemical assay)",Compound
> 9.00,> 5.70,> 9.00,–,–,"CCN1CCN(Cc2ccc(Nc3ncc(F)c(-c4ccc5nn(C)c(C(C)C)c5c4)n3)nc2)CC1 [Compound 1, N-(5-((4-ethylpiperazin-1-yl)methyl)pyridin-2-yl)-5-fluoro-4-(3-isopropyl-2-methyl-2H-indazol-5-yl)pyrimidin-2-amine]"
–,5.00,–,> 8.70,> 9.00,CC(=O)c1c(C)c2nc(Nc3ccc(N4CCNCC4)cn3)ncc2n(C2CCCC2)c1=O [Compound 34]
–,> 5.70,–,–,–,CCN1CCN(Cc2ccc(Nc3ncc(F)c(-c4cc(F)c5nc(C)n(C(C)C)c5c4)n3)nc2)CC1 [Compound 33]
–,5.00,–,–,–,CN(C)C(=O)c1cc2cnc(Nc3ccc(N4CCNCC4)cn3)nc2n1C1CCCC1 [Compound 32]
